One block for each compound: values may come before it. Activity calls are given as the source filed them. No cut-off for these calls is given here.
Key:
Huh-7 [1] = assay: Antiproliferative activity against human Huh-7 cells incubated for 3 days by CCK8 assay; type: functional, cell-based; conditions: Huh-7, 72 h
HEK293T = assay: Inhibition of TEAD (unknown origin) expressed in HEK293T cells transfected with 8xGTIIC-luciferase at 10 uM by dual luciferase reporter assay relative to control; type: cell-based; conditions: Homo sapiens
[2] = Antiproliferative activity against mouse AML12 cells at 10 uM incubated for 3 days by CCK8 assay; type: toxicity, cell-based; conditions: time 3 day
[3] = (§1) Inhibition of TEAD transcription in human Huh-7 cells transfected with 8xGTIIC-luciferase by dual luciferase reporter assay; type: cell-based
Huh-7 [4] = assay: as §1; type: cell-based
Huh-7 [5] = assay: Inhibition of TEAD transcription in human Huh-7 cells transfected with 8xGTIIC-luciferase assessed as downregulation of CTGF protein expression by Western blotting analysis; type: cell-based; conditions: dose 1.25-15 µM
Huh-7 [6] = assay: Inhibition of TEAD transcription in human Huh-7 cells transfected with 8xGTIIC-luciferase assessed as downregulation of CYR61 mRNA expression incubated for 24 hrs by RT-PCR analysis; type: cell-based; conditions: dose 0.5-15 µM
HepG2 [7] = assay: Inhibition of TEAD transcription in human HepG2 cells assessed as downregulation of CTGF mRNA expression incubated for 24 hrs by RT-PCR analysis; type: cell-based
HepG2 [8] = assay: Inhibition of TEAD transcription in human HepG2 cells assessed as downregulation of CYR61 mRNA expression incubated for 24 hrs by RT-PCR analysis; type: cell-based; conditions: dose 0.5-15 µM
HepG2 [9] = assay: Antiproliferative activity against human HepG2 cells incubated for 3 days by CCK8 assay; type: functional, cell-based; conditions: HepG2, 72 h
Hs-578T = assay: Antiproliferative activity against human Hs-578T cells incubated for 3 days by CCK8 assay; type: functional, cell-based; conditions: 72 h
NCI-H226 [10] = assay: Antiproliferative activity against human NCI-H226 cells incubated for 3 days by CCK8 assay; type: functional, cell-based; conditions: NCI-H226, 72 h
NCI-H2452 = assay: Antiproliferative activity against human NCI-H2452 cells incubated for 3 days by CCK8 assay; type: functional, cell-based; conditions: NCI-H2452, 72 h
[11] = target: Transcriptional enhancer factor TEF-4 (Homo sapiens) (UniProt Q15562); assay: Covalent binding affinity to human TEAD2-YBD (217 to 447 residues) assessed as change in protein mass at 50 uM incubated for 15 hrs by mass spectrometry analysis
Sequence of Transcriptional enhancer factor TEF-4 (Homo sapiens) (Q15562 whole entry, the tested form may be a part): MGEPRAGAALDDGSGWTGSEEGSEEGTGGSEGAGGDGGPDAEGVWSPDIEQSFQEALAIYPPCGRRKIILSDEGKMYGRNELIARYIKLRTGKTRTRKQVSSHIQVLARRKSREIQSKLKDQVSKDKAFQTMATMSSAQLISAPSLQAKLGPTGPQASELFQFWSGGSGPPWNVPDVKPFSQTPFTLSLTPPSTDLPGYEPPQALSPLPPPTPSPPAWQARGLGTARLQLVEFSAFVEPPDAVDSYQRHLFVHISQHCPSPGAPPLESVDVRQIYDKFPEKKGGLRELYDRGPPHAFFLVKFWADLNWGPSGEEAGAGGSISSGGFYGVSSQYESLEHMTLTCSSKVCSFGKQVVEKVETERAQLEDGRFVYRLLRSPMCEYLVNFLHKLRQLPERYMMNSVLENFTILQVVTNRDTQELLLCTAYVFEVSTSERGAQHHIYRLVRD

Homo sapiens = organism: Homo sapiens; assay: Covalent binding affinity to human TEAD2-YBD C380S mutant variant assessed as change in protein mass at 50 uM incubated for 15 hrs by mass spectrometry analysis
NCI-H226 [12] = assay: Disruption of YAP to TEAD protein-protein interaction in human NCI-H226 cells at 1 uM incubated for 24 hrs by Coimmunoprecipitation method; type: cell-based
NCI-H226 [13] = assay: Disruption of YAP to TEAD protein-protein interaction in human NCI-H226 cells at 2.5 uM incubated for 24 hrs by Coimmunoprecipitation method; type: cell-based
NCI-H226 [14] = assay: Disruption of TAZ to TEAD protein-protein interaction in human NCI-H226 cells at 1 to 2.5 uM incubated for 24 hrs by Coimmunoprecipitation method; type: cell-based; conditions: dose 1-2.5 µM
Huh-7 [15] = assay: Induction of cell cycle arrest in human Huh-7 cells assessed as increase in G1 phase cells at 5 to 10 uM incubated for 48 hrs by propidium iodide staining based flow cytometry (reference value: 36.4%); type: functional; conditions: dose 5-10 µM
Huh-7 [16] = assay: Induction of cell cycle arrest in human Huh-7 cells assessed as decrease in S phase cells at 5 to 10 uM incubated for 48 hrs by propidium iodide staining based flow cytometry; type: functional; conditions: dose 5-10 µM
Huh-7 [17] = assay: Induction of cell cycle arrest in human Huh-7 cells assessed as decrease in G2 phase cells at 5 to 10 uM incubated for 48 hrs by propidium iodide staining based flow cytometry; type: functional; conditions: dose 5-10 µM
HepG2 [18] = assay: Induction of cell cycle arrest in human HepG2 cells assessed as accumulation of G1 phase cells at 5 to 10 uM incubated for 48 hrs by propidium iodide staining based flow cytometry; type: functional; conditions: dose 5-10 µM
Huh-7 [19] = assay: Induction of apoptosis in human Huh-7 cells assessed as total apoptotic cells at 5 uM incubated for 48 hrs by Annexin V/PI staining based flow cytometry analysis; type: functional
Huh-7 [20] = assay: Induction of apoptosis in human Huh-7 cells assessed as total apoptotic cells at 10 uM incubated for 48 hrs by Annexin V/PI staining based flow cytometry analysis; type: functional
HepG2 [21] = assay: Induction of apoptosis in human HepG2 cells assessed as total apoptotic cells at 10 uM incubated for 48 hrs by Annexin V/PI staining based flow cytometry analysis; type: functional
Huh-7 [22] = assay: Antitumor activity against human Huh-7 cells xenografted in NSG mouse assessed as tumor growth inhibition at 50 mg/kg, ip administered every 3 days for 24 days and measured every 3 days; type: functional; conditions: Huh-7, 576 h, time 24 day, read-out: TGI
Huh-7 [23] = assay: Antitumor activity against human Huh-7 cells xenografted in NSG mouse assessed as tumor growth inhibition at 50 mg/kg, ip administered every 3 days for 24 days in presence of sorafenib and measured every 3 days; type: functional; conditions: Huh-7, 576 h, time 24 day, read-out: TGI
[24] = Toxicity in NSG mouse assessed as change in body weight at 50 mg/kg, ip administered every 3 days for 24 days in presence of sorafenib and measured every 3 days; type: organism-based; conditions: in vivo, 576 h, time 24 day
Mus musculus [25] = assay: In vivo inhibition of TEAD transcription in NSG mouse xenografted with human Huh-7 cells assessed as decrease in CTGF expression at 50 mg/kg, ip administered every 3 days for 24 days by Western blotting analysis; type: functional, organism-based; conditions: time 24.0 day
Mus musculus [26] = assay: In vivo inhibition of TEAD transcription in NSG mouse xenografted with human Huh-7 cells assessed as decrease in CYR61 expression at 50 mg/kg, ip administered every 3 days for 24 days by Western blotting analysis; type: functional, organism-based; conditions: time 24.0 day
Hepatoblastoma cell line [27] = assay: Antitumor activity against C57BL/6 mouse hepatoblastoma assessed as reduction in tumor occurrence at 25 mg/kg, ip administered twice a week for 9 weeks and measured after 2 days post last drug treatment; type: functional, organism-based; conditions: time 65.0 day
Hepatoblastoma cell line [28] = assay: Antitumor activity against C57BL/6 mouse hepatoblastoma assessed as reduction in tumor size at 25 mg/kg, ip administered twice a week for 9 weeks and measured after 2 days post last drug treatment; type: functional, organism-based; conditions: time 65.0 day
Hepatoblastoma cell line [29] = assay: Antitumor activity against C57BL/6 mouse hepatoblastoma assessed as reduction in number of proliferating cells at 25 mg/kg, ip administered twice a week for 9 weeks and measured after 2 days post last drug treatment by Ki67 staining based immunohistochemistry assay; type: functional, organism-based; conditions: time 65.0 day
Mus musculus [30] = assay: Downregulation of Ccnd1 mRNA expression in C57BL/6 mouse hepatoblastoma tumor at 25 mg/kg, ip administered twice a week for 9 weeks and measured after 2 days post last drug treatment by qRT-PCR analysis; type: functional, organism-based; conditions: time 65.0 day
Mus musculus [31] = assay: Downregulation of CTGF mRNA expression in C57BL/6 mouse hepatoblastoma tumor at 25 mg/kg, ip administered twice a week for 9 weeks and measured after 2 days post last drug treatment by qRT-PCR analysis; type: functional, organism-based; conditions: time 65.0 day
Mus musculus [32] = assay: Downregulation of Cyr61 mRNA expression in C57BL/6 mouse hepatoblastoma tumor at 25 mg/kg, ip administered twice a week for 9 weeks and measured after 2 days post last drug treatment by qRT-PCR analysis; type: functional, organism-based; conditions: time 65.0 day
Mus musculus [33] = assay: Downregulation of Afp mRNA expression in C57BL/6 mouse hepatoblastoma tumor at 25 mg/kg, ip administered twice a week for 9 weeks and measured after 2 days post last drug treatment by qRT-PCR analysis; type: functional, organism-based; conditions: time 65.0 day
Mus musculus [34] = assay: Downregulation of Gpc3 mRNA expression in C57BL/6 mouse hepatoblastoma tumor at 25 mg/kg, ip administered twice a week for 9 weeks and measured after 2 days post last drug treatment by qRT-PCR analysis; type: functional, organism-based; conditions: time 65.0 day
Mus musculus [35] = assay: Downregulation of CTGF protein expression in C57BL/6 mouse hepatoblastoma tumor at 25 mg/kg, ip administered twice a week for 9 weeks and measured after 2 days post last drug treatment by Western blotting analysis; type: functional, organism-based; conditions: time 65.0 day
Mus musculus [36] = assay: Downregulation of Cyr61 protein expression in C57BL/6 mouse hepatoblastoma tumor at 25 mg/kg, ip administered twice a week for 9 weeks and measured after 2 days post last drug treatment by Western blotting analysis; type: functional, organism-based; conditions: time 65.0 day
[37] = Half life in Sprague-Dawley rat at 50 mg/kg, ip measured upto 24 hrs by LC-MS/MS analysis; type: ADME, organism-based; conditions: in vivo
[38] = Tmax in Sprague-Dawley rat at 50 mg/kg, ip measured upto 24 hrs by LC-MS/MS analysis; type: ADME, organism-based; conditions: in vivo
[39] = Cmax in Sprague-Dawley rat at 50 mg/kg, ip measured upto 24 hrs by LC-MS/MS analysis; type: ADME, organism-based; conditions: in vivo
[40] = AUClast in Sprague-Dawley rat at 50 mg/kg, ip measured upto 24 hrs by LC-MS/MS analysis; type: ADME, organism-based; conditions: in vivo
[41] = AUCinfinity in Sprague-Dawley rat at 50 mg/kg, ip measured upto 24 hrs by LC-MS/MS analysis; type: ADME, organism-based; conditions: in vivo
[42] = MRTinfinity in Sprague-Dawley rat at 50 mg/kg, ip measured upto 24 hrs by LC-MS/MS analysis; type: ADME, organism-based; conditions: in vivo

SMILES: N#C/C(=C\c1c[nH]c2cc(Cl)c(OCc3ccccc3)cc12)C(N)=O
IC50 (Huh-7 [1]): > 50 µM

SMILES: O=C(CCl)NCc1c[nH]c2cc(Cl)c(OCc3cccc(C(F)(F)F)c3)cc12
inhibition (HEK293T): 47.9%
IC50 (Huh-7 [1]): 8.3 µM

SMILES: Clc1cc2[nH]ccc2cc1OCc1ccccc1
inhibition (HEK293T): 68.3%
IC50 (Huh-7 [1]): 32.5 µM
inhibition at 72 h, 10 µM [2]: 20.3%
IC50 [3]: 5 µM

SMILES: O=C(CCl)c1c[nH]c2cc(Cl)c(OCc3ccc(C(F)(F)F)c(F)c3)cc12
IC50 (Huh-7 [1]): 1.8 µM

Now those with a lower IC50 (Huh-7 [1]), led by results:

IC50 (Huh-7 [1]): 0.9 µM
IC50 [3]: 0.629 µM
IC50 (HepG2 [9]): 2.4 µM
IC50 (NCI-H226 [10]): 0.4 µM
IC50 (NCI-H2452): 11 µM
Activity [11]: Active
Activity (Homo sapiens): inactive
half-life [37]: 6.49 h
Tmax [38]: 2.67 h
Cmax [39]: 0.028 µg/mL
AUC(0-t) at 24 h [40]: 0.175 µg·h/mL
AUC(0-inf) [41]: 0.208 µg·h/mL
MRT inf [42]: 9.65 h
SMILES: O=C(CCl)c1c[nH]c2cc(Cl)c(OCc3cccc(C(F)(F)F)c3)cc12
inhibition (HEK293T): 93.6%
inhibition (Huh-7 [4]): Dose-Dependent Effect
inhibition (Huh-7 [5]): Dose-Dependent Effect
inhibition (Huh-7 [6]): Dose-Dependent Effect
inhibition (HepG2 [7]): Dose-Dependent Effect
inhibition (HepG2 [8]): Dose-Dependent Effect
IC50 (Hs-578T): 2.6 µM
Activity (NCI-H226 [12]): Active
Activity (NCI-H226 [13]): 100%
Activity (NCI-H226 [14]): inactive
Activity (Huh-7 [15]): 58.2%
Activity (Huh-7 [16]): Active
Activity (Huh-7 [17]): Active
Activity (HepG2 [18]): Active
Activity (Huh-7 [19]): 66.8%
Activity (Huh-7 [20]): 83.5%
Activity (HepG2 [21]): 69%
inhibition in vivo at 50 mg/kg (Huh-7 [22]): 75%
inhibition in vivo at 50 mg/kg (Huh-7 [23]): 93%
Activity [24]: Non-Toxic
inhibition (Mus musculus [25]): Active
inhibition (Mus musculus [26]): Active
Activity (Hepatoblastoma cell line [27]): Active
Activity (Hepatoblastoma cell line [28]): Active
Activity (Hepatoblastoma cell line [29]): Active
Activity (Mus musculus [30]): Active
Activity (Mus musculus [31]): Active
Activity (Mus musculus [32]): Active
Activity (Mus musculus [33]): Active
Activity (Mus musculus [34]): Active
Activity (Mus musculus [35]): Active
Activity (Mus musculus [36]): Active

IC50 (Huh-7 [1]): 1.2 µM
SMILES: O=C(CCl)NCc1c[nH]c2cc(Cl)c(OCc3ccccc3)cc12
inhibition (HEK293T): 97.8%
inhibition (Huh-7 [4]): Dose-Dependent Effect
inhibition (Huh-7 [5]): Dose-Dependent Effect

Source: ChEMBL document CHEMBL5614440, “Development of Novel Indole-Based Covalent Inhibitors of TEAD as Potential Antiliver Cancer Agents” (J Med Chem, 2024)
